Laboratory results: publication PMC6934184, “Selective DNA-PKcs inhibition extends the therapeutic index of localized radiotherapy and chemotherapy” (The Journal of Clinical Investigation, 2019)

Biological target: T1, STK32C (YANK3) (Homo sapiens, UniProt Q86UX6)
T1 construct: purchased Thermo Fisher Scientific (Life Technologies) SelectScreen
Experiment: SelectScreen LanthaScreen
Type: binding
Conditions: read-out: % displacement
Procedure, shortened: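 Percent values come from Thermo SelectScreen profiling of NU5455, combining activity and binding assays. CSF1R was run in Z'LYTE format at Km app ATP, and CAMK1 in Adapta format with ATP listed at 10.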

T1 sequence (Q86UX6 whole entry): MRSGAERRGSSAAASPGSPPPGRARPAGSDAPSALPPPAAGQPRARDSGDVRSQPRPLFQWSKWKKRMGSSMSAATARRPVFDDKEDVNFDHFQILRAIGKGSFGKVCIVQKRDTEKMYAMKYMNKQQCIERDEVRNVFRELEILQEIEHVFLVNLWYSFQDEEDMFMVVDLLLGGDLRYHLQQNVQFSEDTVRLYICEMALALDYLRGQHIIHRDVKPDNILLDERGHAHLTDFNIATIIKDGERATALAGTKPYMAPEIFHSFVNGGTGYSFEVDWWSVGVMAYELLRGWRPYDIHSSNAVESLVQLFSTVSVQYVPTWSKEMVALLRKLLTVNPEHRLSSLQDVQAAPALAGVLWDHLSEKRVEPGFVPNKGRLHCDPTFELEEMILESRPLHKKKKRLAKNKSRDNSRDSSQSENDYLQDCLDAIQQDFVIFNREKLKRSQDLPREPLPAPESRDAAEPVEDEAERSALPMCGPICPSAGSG

CN(C(=O)CN1CCOCC1)c1ccc2sc3c(-c4cccc5c(=O)cc(N6CC7CCC(C6)O7)oc45)cccc3c2c1 [NU5455]
inhibition at 1 µM: 4.2%
